Measurements: ChEMBL document CHEMBL5653631, “A Potent and Selective ULK1 Inhibitor Suppresses Autophagy and Sensitizes Cancer Cells to Nutrient Stress” (iScience, 2018)

Key:
[1] = target: T1, Mitogen-activated protein kinase kinase kinase 5 (Homo sapiens) (UniProt Q99683); assay: Inhibition of human recombinant MAP3K5 at 40 nM in presence of ATP by radiometric assay relative to control
T1 sequence (whole entry): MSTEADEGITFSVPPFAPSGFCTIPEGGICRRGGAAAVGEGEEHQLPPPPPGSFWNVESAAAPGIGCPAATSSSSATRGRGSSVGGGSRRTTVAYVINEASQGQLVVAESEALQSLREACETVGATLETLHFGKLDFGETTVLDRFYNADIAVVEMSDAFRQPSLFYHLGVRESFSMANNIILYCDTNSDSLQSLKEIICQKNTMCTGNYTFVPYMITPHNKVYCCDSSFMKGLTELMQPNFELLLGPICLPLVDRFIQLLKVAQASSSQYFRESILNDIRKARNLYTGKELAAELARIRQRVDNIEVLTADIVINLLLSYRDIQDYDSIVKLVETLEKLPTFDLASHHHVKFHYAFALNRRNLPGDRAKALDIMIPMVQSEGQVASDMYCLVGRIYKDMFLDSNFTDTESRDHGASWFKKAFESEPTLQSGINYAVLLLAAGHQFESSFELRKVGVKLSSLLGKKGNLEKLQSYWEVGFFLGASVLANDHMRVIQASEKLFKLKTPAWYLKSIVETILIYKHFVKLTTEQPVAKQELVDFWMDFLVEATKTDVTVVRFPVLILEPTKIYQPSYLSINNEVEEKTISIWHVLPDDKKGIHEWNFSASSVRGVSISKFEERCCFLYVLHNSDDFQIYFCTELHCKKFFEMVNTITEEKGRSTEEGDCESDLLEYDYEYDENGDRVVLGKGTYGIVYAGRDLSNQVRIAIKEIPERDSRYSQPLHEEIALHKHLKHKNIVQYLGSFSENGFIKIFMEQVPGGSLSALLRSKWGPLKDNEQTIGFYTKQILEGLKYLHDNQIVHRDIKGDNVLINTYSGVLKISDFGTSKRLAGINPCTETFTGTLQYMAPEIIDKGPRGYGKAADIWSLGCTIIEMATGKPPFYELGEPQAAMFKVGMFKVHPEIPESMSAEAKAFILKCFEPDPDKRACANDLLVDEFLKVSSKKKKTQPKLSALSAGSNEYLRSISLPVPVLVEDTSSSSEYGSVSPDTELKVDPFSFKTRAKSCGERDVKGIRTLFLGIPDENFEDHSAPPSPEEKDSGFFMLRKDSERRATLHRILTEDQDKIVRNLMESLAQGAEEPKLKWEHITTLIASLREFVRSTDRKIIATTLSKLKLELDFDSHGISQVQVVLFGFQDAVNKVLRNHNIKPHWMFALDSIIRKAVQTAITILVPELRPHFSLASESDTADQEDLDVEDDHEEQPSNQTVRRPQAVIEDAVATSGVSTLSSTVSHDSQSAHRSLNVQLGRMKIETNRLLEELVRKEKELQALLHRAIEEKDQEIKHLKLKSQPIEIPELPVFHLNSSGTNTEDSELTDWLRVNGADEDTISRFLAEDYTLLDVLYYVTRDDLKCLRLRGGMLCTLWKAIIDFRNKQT

[2] = target: T2, Myotonin-protein kinase (Homo sapiens) (UniProt Q09013); assay: Inhibition of human recombinant DMPK1 at 40 nM related to control ULK1
T2 sequence (whole entry): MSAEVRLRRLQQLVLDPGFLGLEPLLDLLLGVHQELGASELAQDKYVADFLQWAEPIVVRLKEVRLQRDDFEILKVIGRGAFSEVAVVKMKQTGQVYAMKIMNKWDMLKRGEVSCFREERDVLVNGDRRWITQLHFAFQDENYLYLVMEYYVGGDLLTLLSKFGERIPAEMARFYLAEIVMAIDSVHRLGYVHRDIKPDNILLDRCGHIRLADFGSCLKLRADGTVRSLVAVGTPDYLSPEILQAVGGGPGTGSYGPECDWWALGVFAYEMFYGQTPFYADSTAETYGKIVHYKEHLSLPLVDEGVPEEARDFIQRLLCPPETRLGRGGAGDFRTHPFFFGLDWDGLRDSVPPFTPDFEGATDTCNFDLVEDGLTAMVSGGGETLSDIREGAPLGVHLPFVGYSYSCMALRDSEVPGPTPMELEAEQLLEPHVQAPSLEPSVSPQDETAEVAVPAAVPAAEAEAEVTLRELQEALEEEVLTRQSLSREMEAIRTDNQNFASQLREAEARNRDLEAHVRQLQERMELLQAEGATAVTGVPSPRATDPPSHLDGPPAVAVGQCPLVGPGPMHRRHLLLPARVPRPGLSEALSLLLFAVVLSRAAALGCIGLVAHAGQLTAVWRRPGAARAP

[3] = target: Serine/threonine-protein kinase Nek7 (Homo sapiens) (UniProt Q8TDX7); assay: Inhibition of human recombinant NEK7 at 500 nM in presence of ATP by radiometric assay relative to control
[4] = target: T3, cGMP-dependent protein kinase 2 (Homo sapiens) (UniProt Q13237); assay: Inhibition of human recombinant PKG2 at 15 nM in presence of ATP by radiometric assay relative to control
T3 sequence (whole entry): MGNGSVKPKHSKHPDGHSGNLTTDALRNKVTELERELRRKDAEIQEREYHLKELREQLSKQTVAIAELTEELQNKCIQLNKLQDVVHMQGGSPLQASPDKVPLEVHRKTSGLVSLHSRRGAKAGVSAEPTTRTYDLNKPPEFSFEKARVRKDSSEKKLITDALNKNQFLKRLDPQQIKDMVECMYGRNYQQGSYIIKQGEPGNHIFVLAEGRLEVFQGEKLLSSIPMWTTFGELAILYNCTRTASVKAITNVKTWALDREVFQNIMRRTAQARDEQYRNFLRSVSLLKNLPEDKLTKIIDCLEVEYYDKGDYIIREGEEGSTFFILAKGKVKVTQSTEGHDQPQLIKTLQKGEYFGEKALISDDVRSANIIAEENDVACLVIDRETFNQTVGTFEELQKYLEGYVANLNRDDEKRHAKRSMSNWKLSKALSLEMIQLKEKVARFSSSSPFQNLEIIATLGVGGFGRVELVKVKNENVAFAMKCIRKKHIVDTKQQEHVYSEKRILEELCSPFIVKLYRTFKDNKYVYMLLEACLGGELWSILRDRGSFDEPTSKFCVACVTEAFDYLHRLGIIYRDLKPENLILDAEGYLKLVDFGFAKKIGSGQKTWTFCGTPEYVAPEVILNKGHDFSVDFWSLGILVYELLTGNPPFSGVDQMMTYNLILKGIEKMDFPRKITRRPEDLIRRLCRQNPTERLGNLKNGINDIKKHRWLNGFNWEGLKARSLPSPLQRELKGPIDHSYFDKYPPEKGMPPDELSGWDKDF

Chain of Serine/threonine-protein kinase Nek7 (Homo sapiens) (Q8TDX7 whole entry, looked up): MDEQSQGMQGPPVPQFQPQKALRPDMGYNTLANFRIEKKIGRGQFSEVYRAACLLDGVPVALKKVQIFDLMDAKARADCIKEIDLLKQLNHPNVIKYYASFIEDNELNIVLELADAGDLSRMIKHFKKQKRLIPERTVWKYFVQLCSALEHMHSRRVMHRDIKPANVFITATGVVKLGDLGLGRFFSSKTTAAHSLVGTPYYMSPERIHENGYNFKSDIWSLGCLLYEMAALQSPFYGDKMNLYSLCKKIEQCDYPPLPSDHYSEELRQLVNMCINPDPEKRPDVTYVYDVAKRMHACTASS

**Q.** O=C(N[C@@H](C1CC1)C(F)(F)F)c1cc(-c2cnn3cc(-c4ccc(F)cc4)cnc23)cs1 was tested. Which inhibition [1] did it give?
**A.** 0%

**Q.** And the fold change (FC) [2]?
**A.** 0.07

**Q.** How did the inhibition [3] turn out when CNC(=O)c1ccccc1Oc1nc(Nc2cc(OC)c(OC)c(OC)c2)ncc1Br was run?
**A.** 0%

**Q.** CC(C)[C@H](NC(=O)c1cc(-c2cnn3cc(-c4ccc(OCCN5CCCCC5)cc4)cnc23)cs1)C(F)(F)F was tested. Which inhibition [4] did it give?
**A.** 4%
